Laboratory results reported in EPA's ToxRefDB 2.

Assays:
[1] = system: primate; conditions: Sub-acute repeat dose toxicity; Oral; Gavage/Intubation; dose end: 9 day; group: systemic; systemic / clinical chemistry / [other] / [other] + systemic / clinical chemistry / alanine aminotransferase (alt/sgpt) / alanine …
[2] = system: rat; conditions: Sub-acute repeat dose toxicity; sprague dawley; Oral; Gavage/Intubation; dose end: 14 day; group: systemic; systemic / hematology / erythrocyte (rbc) count differential / erythrocyte (rbc) + systemic / hematology / fibrinogen / fibrinogen + …
[3] = system: rat; conditions: Sub-acute repeat dose toxicity; sprague dawley; Oral; Gavage/Intubation; dose end: 28 day; group: systemic; systemic / in life observation / body weight / body weight + systemic / in life observation / clinical signs / feces, discoloration + …
[4] = system: primate; conditions: Sub-acute repeat dose toxicity, Oral, Gavage/Intubation, dose end: 30 day, group: systemic
[5] = system: primate; conditions: Sub-acute repeat dose toxicity; Oral; Gavage/Intubation; dose end: 5 day; group: systemic; systemic / clinical chemistry / bilirubin / total bilirubin + systemic / in life observation / clinical signs / abnormal feces + systemic / …
[6] = system: primate; conditions: Sub-acute repeat dose toxicity, Oral, Gavage/Intubation, dose end: 34 day, group: systemic
[7] = system: primate; conditions: Sub-acute repeat dose toxicity; Oral; Gavage/Intubation; dose end: 8 day; group: systemic; systemic / in life observation / clinical signs / emesis
[8] = system: mouse; conditions: Sub-acute repeat dose toxicity; Oral; Gavage/Intubation; dose end: 14 day; group: systemic; systemic / clinical chemistry / [other] / [other] + systemic / clinical chemistry / cytochrome p450, nos / cytochrome p450, nos + systemic…
[9] = system: mouse; conditions: Sub-acute repeat dose toxicity; Oral; Gavage/Intubation; dose end: 14 day; group: systemic; systemic / clinical chemistry / [other] / [other] + systemic / clinical chemistry / cytochrome p450, nos / cytochrome p450, nos + systemic…; remark: listed apart in the source
[10] = system: rat; conditions: Sub-acute repeat dose toxicity; sprague dawley; Oral; Gavage/Intubation; dose end: 14 day; group: systemic; systemic / clinical chemistry / [other] / [other] + systemic / clinical chemistry / 5' nucleotidase / 5' nucleotidase + systemic / clinical …
[11] = system: rat; conditions: Sub-acute repeat dose toxicity; sprague dawley; Oral; Gavage/Intubation; dose end: 8 day; group: systemic; systemic / clinical chemistry / potassium / potassium + systemic / in life observation / body weight / body weight + systemic / clinical …
[12] = system: primate; conditions: Sub-acute repeat dose toxicity; Oral; Gavage/Intubation; dose end: 4 day; group: systemic; systemic / clinical chemistry / chloride / chlorine + systemic / clinical chemistry / cholesterol / cholesterol + systemic / clinical …
[13] = system: mouse; conditions: Sub-acute repeat dose toxicity, Oral, Gavage/Intubation, dose end: 14 day, group: systemic
[14] = system: rat; conditions: Sub-acute repeat dose toxicity, sprague dawley, Oral, Gavage/Intubation, dose end: 34 day, group: systemic
[15] = system: rat; conditions: Sub-acute repeat dose toxicity, sprague dawley, Oral, Gavage/Intubation, dose end: 14 day, group: systemic
[16] = system: rat; conditions: Sub-acute repeat dose toxicity, sprague dawley, Oral, Gavage/Intubation, dose end: 28 day, group: systemic
[17] = system: dog; conditions: Sub-acute repeat dose toxicity; beagle; Oral; Capsule; dose end: 1 month; group: systemic; systemic / in life observation / clinical signs / defecation (diarrhea) + systemic / in life observation / clinical signs / emesis + …
[18] = systemic / in life observation / mortality / mortality + systemic / clinical chemistry / [other] / [other] + systemic / hematology / …
[19] = systemic / pathology gross / full gross necropsy / hemorrhage + systemic / pathology gross / full gross necropsy / lesion(s) (nos)
[20] = systemic / organ weight / liver / absolute + systemic / clinical chemistry / hepatic mixed function oxidase (mfo) assay / hepatic mixed …
[21] = systemic / organ weight / liver / absolute + systemic / in life observation / clinical signs / arrhythmia + systemic / in life observation…
[22] = systemic / clinical chemistry / [other] / [other] + systemic / clinical chemistry / cytochrome p450, nos / cytochrome p450, nos + systemic…
[23] = systemic / organ weight / liver / relative to body weight
[24] = systemic / clinical chemistry / hepatic mixed function oxidase (mfo) assay / hepatic mixed function oxidase (mfo) assay
[25] = systemic / hematology / erythrocyte (rbc) count differential / erythrocyte (rbc) + systemic / in life observation / mortality / mortality + …
[26] = systemic / clinical chemistry / cholesterol / cholesterol + systemic / clinical chemistry / globulins / globulins + systemic / clinical …
[27] = systemic / clinical chemistry / glucose / glucose + systemic / clinical chemistry / cholesterol / cholesterol
[28] = systemic / clinical chemistry / glucose / glucose + systemic / hematology / platelet / platelet + systemic / pathology microscopic / liver…

## NC(=O)N1C(=O)C(C(=O)c2ccc(F)s2)c2cc(F)c(Cl)cc21 (stereo not drawn)
[1]
  LEL: 2 mg/kg/day
  LOAEL: > 20 mg/kg/day
  NEL: < 2 mg/kg/day
  NOAEL: ≥ 20 mg/kg/day
[2]
  LEL: 30 mg/kg/day
  LOAEL: > 30 mg/kg/day
  NEL: 10 mg/kg/day
  NOAEL: ≥ 30 mg/kg/day
[3]
  LEL: 3 mg/kg/day
  LOAEL: > 20 mg/kg/day
  NEL: < 3 mg/kg/day
  NOAEL: ≥ 20 mg/kg/day
[4]; [18]
  LOAEL: > 10 mg/kg/day
  NOAEL: ≥ 10 mg/kg/day
[4]; [19]
  LEL: 1 mg/kg/day
  NEL: < 1 mg/kg/day
[5]
  LEL: 30 mg/kg/day
  LOAEL: > 30 mg/kg/day
  NEL: < 30 mg/kg/day
  NOAEL: ≥ 30 mg/kg/day

## NC(=O)N(O)Cc1ccc2c(c1)CCCN2CCCc1ccccc1
[6]; [20]
  LEL: 5 mg/kg/day
  NEL: < 5 mg/kg/day
[6]; [21]
  LOAEL: > 100 mg/kg/day
  NOAEL: ≥ 100 mg/kg/day
[7]
  LEL: 150 mg/kg/day
  LOAEL: > 150 mg/kg/day
  NEL: < 150 mg/kg/day
  NOAEL: ≥ 150 mg/kg/day
[8]
  LEL: 200 mg/kg/day
  LOAEL: > 200 mg/kg/day
  NEL: < 200 mg/kg/day
  NOAEL: ≥ 200 mg/kg/day
[9]
  LEL: 200 mg/kg/day
  LOAEL: > 200 mg/kg/day
  NEL: < 200 mg/kg/day
  NOAEL: ≥ 200 mg/kg/day
[10]
  LEL: 200 mg/kg/day
  LOAEL: > 200 mg/kg/day
  NEL: < 200 mg/kg/day
  NOAEL: ≥ 200 mg/kg/day
[11]
  LEL: 400 mg/kg/day
  LOAEL: > 400 mg/kg/day
  NEL: < 400 mg/kg/day
  NOAEL: ≥ 400 mg/kg/day
[12]
  LEL: 300 mg/kg/day
  LOAEL: > 300 mg/kg/day
  NEL: < 300 mg/kg/day
  NOAEL: ≥ 300 mg/kg/day
[13]; [22]
  LOAEL: > 200 mg/kg/day
  NOAEL: ≥ 200 mg/kg/day
[13]; [23]
  LEL: 50 mg/kg/day
  NEL: < 50 mg/kg/day
[14]; [24]
  LEL: 10 mg/kg/day
  NEL: < 10 mg/kg/day
[14]; [25]
  LOAEL: > 200 mg/kg/day
  NOAEL: ≥ 200 mg/kg/day
[15]; [26]
  LOAEL: > 100 mg/kg/day
  NEL: 10 mg/kg/day
  NOAEL: ≥ 100 mg/kg/day
[15]; systemic / clinical chemistry / triglycerides / triglycerides + systemic / organ weight / liver / relative to body weight + systemic / …
  LEL: 32 mg/kg/day

## COc1cc(C(C)C)c2c(c1)S(=O)(=O)N(COc1cc(=O)n3cccc(OCCN4CCCCC4)c3n1)C2=O
[16]; [27]
  LEL: 30 mg/kg/day
  NEL: < 30 mg/kg/day
[16]; [28]
  LOAEL: 100 mg/kg/day
  NOAEL: 30 mg/kg/day
[17]
  LEL: 10 mg/kg/day
  LOAEL: > 100 mg/kg/day
  NEL: < 10 mg/kg/day
  NOAEL: ≥ 100 mg/kg/day
